The assay concerns the target T1, recombinant human NAE enzyme (Homo sapiens, UniProt Q8TBC4).
T1 construct: His (N); made in house; host or cells: Sf9 insect cells (baculovirus, Bac-to-Bac)
T1 sequence (Q8TBC4 1-463): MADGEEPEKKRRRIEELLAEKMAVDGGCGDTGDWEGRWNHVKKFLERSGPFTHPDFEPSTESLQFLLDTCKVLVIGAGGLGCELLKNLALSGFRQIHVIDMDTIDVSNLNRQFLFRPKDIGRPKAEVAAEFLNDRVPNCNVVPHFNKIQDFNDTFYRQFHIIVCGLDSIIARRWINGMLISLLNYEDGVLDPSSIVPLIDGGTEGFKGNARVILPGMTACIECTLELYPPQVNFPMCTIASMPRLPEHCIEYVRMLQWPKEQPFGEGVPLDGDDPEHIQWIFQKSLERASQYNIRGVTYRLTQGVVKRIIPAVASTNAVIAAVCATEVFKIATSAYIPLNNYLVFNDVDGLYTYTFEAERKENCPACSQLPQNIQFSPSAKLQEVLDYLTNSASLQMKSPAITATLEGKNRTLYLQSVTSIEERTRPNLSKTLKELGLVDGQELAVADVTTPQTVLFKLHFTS
T1 sequence (Q13564 1-534 partner): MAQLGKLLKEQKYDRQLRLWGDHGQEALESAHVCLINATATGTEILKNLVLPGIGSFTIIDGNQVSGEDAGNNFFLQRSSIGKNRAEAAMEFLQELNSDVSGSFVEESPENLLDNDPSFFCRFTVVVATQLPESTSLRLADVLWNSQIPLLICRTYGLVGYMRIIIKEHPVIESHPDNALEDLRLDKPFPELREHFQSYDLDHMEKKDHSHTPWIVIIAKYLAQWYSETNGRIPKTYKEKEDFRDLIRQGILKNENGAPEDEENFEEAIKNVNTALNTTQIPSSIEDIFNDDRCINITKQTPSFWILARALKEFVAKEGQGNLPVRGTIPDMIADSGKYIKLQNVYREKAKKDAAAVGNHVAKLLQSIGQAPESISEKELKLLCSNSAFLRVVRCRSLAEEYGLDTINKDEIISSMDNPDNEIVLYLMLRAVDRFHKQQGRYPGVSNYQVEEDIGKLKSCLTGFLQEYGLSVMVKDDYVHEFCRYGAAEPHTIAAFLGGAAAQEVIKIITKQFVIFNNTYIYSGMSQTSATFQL
Description: Nedd8-Activating Enzyme (NAE) HTRF Assay. It counts as biochemical. The note with it: 20 μM ATP. As for the experimental part:
Following manufacturer instructions, baculoviruses were generated with the Bac-to-Bac Expression System (Invitrogen) for the following proteins: untagged NAEα (APPBP1; NP_003896.1), N-terminally His-tagged NAEJ (UBE1C; NP_003959.3), untagged SAEα (SAE1; NP_005491.1), N-terminally His-tagged SAE3 (UBA2; NP_005490.1), N-terminally His-tagged murine UAE (UBE1X; NP_033483). NAEα/His-NAEβ and SAEα/His-SAEβ complexes were generated by co-infection of Sf9 cells, which were harvested after 48 hours. His-mUAE was generated by single infection of Sf9 cells and harvested after 72 hours. Expressed proteins were purified by affinity chromatography (Ni-NTA agarose, Qiagen) using standard buffers. Nedd8-Activating Enzyme (NAE) HTRF Assay. The NAE enzymatic reaction totaled 50 μL and contained 50 mM HEPES (pH 7.5), 0.05% BSA, 5 mM MgCl2, 20 μM ATP, 250 μM GSH, 0.01 μM Ubc12-GST, 0.075 μM Nedd8-Flag and 0.20 nM recombinant human NAE enzyme. The enzymatic reaction mixture, with and without compound inhibitor, was incubated at room temperature 24° C. for 105 minutes in a 384-well plate before termination with 25 μL of Stop/Detection buffer (0.1M HEPES pH 7.5, 0.05% Tween20, 20 mM EDTA, 410 mM KF, 0.53 nM Europium-Cryptate labeled monoclonal anti-FLAG M2 antibody (CisBio International) and 8.125 μg/mL PHYCOLINK goat anti-GST allophycocyanin (XL-APC) antibody (Prozyme)). After incubation for 1 hour at 24° C., quantification of the FRET was performed on the Analyst™ HT 96.384 (Molecular Devices).

Regarding `NS(=O)(=O)OC[C@@H]1C[C@@H](Oc2cc(N3CCc4ccccc4C3)ncn2)C[C@@H]1O` [Compound I-61, ((1S,2S,4R)-4-{[6-(3,4-dihydroisoquinolin-2(1H)-yl)pyrimidin-4-yl]oxy}-2-hydroxycyclopentyl)methyl sulfamate], the IC50 (bound given in μM) is greater than 10 µM.

With `Cn1c(-c2ccccc2)nc2c(N[C@@H]3C[C@@H](COS(N)(=O)=O)[C@@H](O)C3)ncnc21` [Compound I-130, {(1S,2S,4R)-2-hydroxy-4-[(9-methyl-8-phenyl-9H-purin-6-yl)amino]cyclopentyl}methyl sulfamate], the IC50 (bound given in nM) is no more than 0.5 µM.

For the compound `NS(=O)(=O)OC[C@H]1C[C@@H](Nc2cc(N[C@H]3CCc4c(F)cccc43)ncn2)[C@H](O)[C@@H]1O` [Compound I-1, {(1R,2R,3S,4R)-4-[(6-{[(1S)-4-fluoro-2,3-dihydro-1H-inden-1-yl]amino}-pyrimidin-4-yl)-amino]-2,3-dihydroxycyclopentyl}methyl sulfamate], the IC50 (bound given in nM) was no more than 0.5 µM.

For the compound `NS(=O)(=O)OC[C@H]1C[C@@H](Nc2cc(N[C@H]3CCc4cc(Cl)ccc43)ncn2)[C@H](O)[C@@H]1O` [Compound I-19, {(1R,2R,3S,4R)-4-[(6-{[(1S)-5-chloro-2,3-dihydro-1H-inden-1-yl]amino}-pyrimidin-4-yl)-amino]-2,3-dihydroxycyclopentyl}methyl sulfamate], where the note is “bound given in nM”, the IC50 was no more than 0.5 µM.

For the compound `NS(=O)(=O)OC[C@H]1C[C@@H](Nc2nc(N[C@H]3CCc4ccccc43)ncc2F)[C@H](O)[C@@H]1O` [Compound I-113, [(1R,2R,3S,4R)-4-({2-[(1S)-2,3-dihydro-1H-inden-1-ylamino]-5-fluoropyrimidin-4-yl}-amino)-2,3-dihydroxycyclopentyl]methyl sulfamate], the IC50 (bound given in nM) was greater than 0.5 µM and the IC50 (bound given in μM) was less than 10 µM.

`CO[C@@H]1CC(C)(C)c2ccccc2[C@@H]1Nc1cc(O[C@@H]2C[C@@H](COS(N)(=O)=O)[C@@H](O)C2)ncn1` [Compound I-151, {(1S,2S,4R)-2-hydroxy-4-[(6-{[(1S,2R)-2-methoxy-4,4-dimethyl-1,2,3,4-tetrahydronaphthalen-1-yl]amino}pyrimidin-4-yl)oxy]cyclopentyl}methyl sulfamate]: the IC50 (bound given in nM) is no more than 0.5 µM.

Regarding `NS(=O)(=O)OC[C@@H]1C[C@@H](Nc2ncnc3[nH]c(-c4cccc5c4OCCO5)nc23)C[C@@H]1O` [Compound I-41, ((1S,2S,4R)-4-{[8-(2,3-dihydro-1,4-benzodioxin-5-yl)-9H-purin-6-yl]amino}-2-hydroxycyclopentyl)methyl sulfamate], where the note is “bound given in nM”, the IC50 was no more than 0.5 µM.

Turning to `NS(=O)(=O)OC[C@@H]1C[C@@H](Oc2cc(N3Cc4ccccc4C3)ncn2)C[C@@H]1O` [Compound I-120, ((1S,2S,4R)-4-{[6-(1,3-dihydro-2H-isoindol-2-yl)pyrimidin-4-yl]oxy}-2-hydroxycyclopentyl)methyl sulfamate], the IC50 was greater than 0.5 µM (bound given in nM) and less than 10 µM (bound given in μM).

Take `NS(=O)(=O)OC[C@H]1C[C@@H](Nc2cc(N[C@H]3CCc4c(Cl)cccc43)ncn2)[C@H](O)[C@@H]1O` [Compound I-24, {(1R,2R,3S,4R)-4-[(6-{[(1S)-4-chloro-2,3-dihydro-1H-inden-1-yl]amino}-pyrimidin-4-yl)-amino]-2,3-dihydroxycyclopentyl}methyl sulfamate]: the IC50 (bound given in nM) was no more than 0.5 µM.

With `NS(=O)(=O)OC[C@@H]1C[C@@H](Oc2cc(OCc3ccc4ccccc4c3)ncn2)C[C@@H]1O` [Compound I-141, ((1S,2S,4R)-2-hydroxy-4-{[6-(2-naphthylmethoxy)pyrimidin-4-yl]oxy}cyclopentyl)methyl sulfamate], the IC50 by setting is: (bound given in nM) greater than 0.5 µM; (bound given in μM) less than 10 µM.

With `Cc1nc(N[C@H]2CCc3ccccc32)nc(N[C@@H]2C[C@H](COS(N)(=O)=O)[C@@H](O)[C@H]2O)n1` [Compound I-45, [(1R,2R,3S,4R)-4-({4-[(1S)-2,3-dihydro-1H-inden-1-ylamino]-6-methyl-1,3,5-triazin-2-yl}amino)-2,3-dihydroxycyclopentyl]methyl sulfamate], the IC50 (bound given in nM) is no more than 0.5 µM.

`NS(=O)(=O)OC[C@@H]1C[C@@H](Nc2ncnc3[nH]c(-c4ccccc4OCc4ccccc4)nc23)C[C@@H]1O` [Compound I-68, [(1S,2S,4R)-4-({8-[2-(benzyloxy)phenyl]-9H-purin-6-yl}amino)-2-hydroxycyclopentyl]methyl sulfamate]: under “bound given in nM”, the IC50 is no more than 0.5 µM.

For the compound `CN(C)C(=O)[C@H]1Cc2ccccc2[C@H]1Nc1cc(O[C@@H]2C[C@@H](COS(N)(=O)=O)[C@@H](O)C2)ncn1` [Compound I-66, ((1S,2S,4R)-4-{[6-({(1S,2S)-2-[(dimethylamino)carbonyl]-2,3-dihydro-1H-inden-1-yl}amino)pyrimidin-4-yl]oxy}-2-hydroxycyclopentyl)methyl sulfamate], the IC50 reads like this: (bound given in nM) greater than 0.5 µM; (bound given in μM) less than 10 µM.

With `NS(=O)(=O)OC[C@H]1C[C@@H](Nc2cc(N[C@H]3CCCc4ccccc43)ncn2)[C@H](O)[C@@H]1O` [Compound I-12, [(1R,2R,3S,4R)-2,3-dihydroxy-4-({6-[(1S)-1,2,3,4-tetrahydronaphthalen-1-ylamino]pyrimidin-4-yl}amino)cyclopentyl]methyl sulfamate], where the note is “bound given in nM”, the IC50 was no more than 0.5 µM.

Consider `NS(=O)(=O)OC[C@@H]1C[C@@H](Oc2ccncn2)C[C@@H]1O` [Compound I-97, [(1S,2S,4R)-2-hydroxy-4-(pyrimidin-4-yloxy)cyclopentyl]methyl sulfamate], for which the IC50 (bound given in μM) was greater than 10 µM.

Regarding `CO[C@H]1Cc2ccccc2[C@H]1Nc1ncnc(N[C@@H]2C[C@@H](COS(N)(=O)=O)[C@@H](O)C2)n1` [Compound I-125, {(1S,2S,4R)-2-hydroxy-4-[(4-{[(1R,2S)-2-methoxy-2,3-dihydro-1H-inden-1-yl]amino}-1,3,5-triazin-2-yl)amino]cyclopentyl}methyl sulfamate], the IC50 (bound given in nM) was no more than 0.5 µM.

On to `COc1ccc2c(c1)[C@@H](Nc1cc(O[C@@H]3C[C@@H](COS(N)(=O)=O)[C@@H](O)C3)ncn1)[C@@H](OC)CC2` [Compound I-149, {(1S,2S,4R)-4-[(6-{[(1R,2S)-2,7-dimethoxy-1,2,3,4-tetrahydronaphthalen-1-yl]amino}-pyrimidin-4-yl)oxy]-2-hydroxycyclopentyl}methyl sulfamate], for which the IC50 was greater than 0.5 µM (bound given in nM) and less than 10 µM (bound given in μM).

For `Cc1nc(N)cc(N[C@@H]2C[C@H](COS(N)(=O)=O)[C@@H](O)[C@H]2O)n1` [Compound I-13, {(1R,2R,3S,4R)-4-[(6-amino-2-methylpyrimidin-4-yl)amino]-2,3-dihydroxycyclopentyl}methyl sulfamate], the IC50 (bound given in μM) was greater than 10 µM.

For `CO[C@H]1Cc2ccccc2[C@H]1Oc1cc(O[C@@H]2C[C@@H](COS(N)(=O)=O)[C@@H](O)C2)ncn1` [Compound I-96, {(1S,2S,4R)-2-hydroxy-4-[(6-{[(1R,2S)-2-methoxy-2,3-dihydro-1H-inden-1-yl]oxy}-pyrimidin-4-yl)oxy]cyclopentyl}methyl sulfamate], the IC50 by setting is: (bound given in nM) greater than 0.5 µM; (bound given in μM) less than 10 µM.

Turning to `CC1(C)C[C@H](Nc2ncnc(N[C@@H]3C[C@@H](COS(N)(=O)=O)[C@@H](O)C3)c2F)c2ccccc21` [Compound I-71, {(1S,2S,4R)-4-[(6-{[(1S)-3,3-dimethyl-2,3-dihydro-1H-inden-1-yl]amino}-5-fluoropyrimidin-4-yl)amino]-2-hydroxycyclopentyl}methyl sulfamate], the IC50 (bound given in nM) is no more than 0.5 µM.

For orientation: IC50 means the concentration that gives 50% inhibition.

(Values after US9718788B2, “Heteroaryl compounds useful as inhibitors of E1 activating enzymes” (MILLENNIUM PHARMACEUTICALS, INC., priority 2006, dated 2017).)
